Experimental data published in patent US20060276464A1, “Diarylsulfone sulfonamides and use thereof” (Wyeth, priority 2005, published 2006).
pEC50, pIC50: −log10 of the molar value.

Tests used:
SFRP-1 [1] = biological target: T1, SFRP-1 (Homo sapiens, UniProt Q8N474); test: Cell-based assay for in vitro measurement of SFRP-1/SARP2 antagonist activity (U2OS cells co-transfected with 16x TCF-tk-Luciferase reporter, Wnt and hSFRP-1); settings: for fold induction at 10 µM: U2OS, read-out: Fold Induction with SFRP-1, U2OS cells, single dose 10 μM, luciferase reporter, fold induction over SFRP-1 control;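 for all read-outs here: U2OS cells co-transfected with a TCF-tk luciferase reporter, a Wnt vector, hSFRP-1 or empty vector and CMV-βgal, luciferase luminescence read in cell lysates alongside βgal activity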
T1 sequence (Q8N474 32-314): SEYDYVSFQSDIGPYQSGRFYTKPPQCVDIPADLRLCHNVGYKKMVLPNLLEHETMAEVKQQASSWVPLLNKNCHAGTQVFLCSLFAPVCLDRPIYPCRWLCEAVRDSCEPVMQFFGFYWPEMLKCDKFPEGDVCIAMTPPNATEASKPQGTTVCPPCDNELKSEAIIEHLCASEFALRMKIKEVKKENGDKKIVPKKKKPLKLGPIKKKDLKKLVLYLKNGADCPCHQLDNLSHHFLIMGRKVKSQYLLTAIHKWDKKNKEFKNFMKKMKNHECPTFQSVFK

SFRP-1 [2] = biological target: T1, SFRP-1; test: Fluorescence polarization binding assay (competitive displacement of a probe compound from SFRP-1); settings: fluorescence anisotropy, 45 nM SFRP-1, 20 nM probe;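 note: test compound competes with a fluorescent probe held by SFRP-1, seen as a drop in probe anisotropy after incubation in darkness, with anisotropy as function of rising compound dose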

Row | Compound | fold induction at 10 µM (SFRP-1 [1]) | pIC50 (SFRP-1 [2]) | melting point [°C] | pEC50 (SFRP-1 [1])
1 | CC(C)c1ccc(S(=O)(=O)c2ccccc2)cc1S(=O)(=O)NC1CCN(C(=O)c2ccc(C(F)(F)F)cc2)CC1 [Example 807, 2-Isopropyl-5-(phenylsulfonyl)-N-{1-[4-(trifluoromethyl)benzoyl]piperidin-4-yl}benzenesulfonamide] | 3 | 6.05 | 140 to 142 | 
2 | CC(C)c1ccc(S(=O)(=O)c2ccccc2)cc1S(=O)(=O)NC1CCN(C(=O)c2cccc3ccccc23)CC1 [Example 808, 2-Isopropyl-N-[1-(1-naphthoyl)piperidin-4-yl]-5-(phenylsulfonyl)benzenesulfonamide] | 3.7 | 6.30 | 163 to 165 | 6.02
3 | CC(C)c1ccc(S(=O)(=O)c2ccccc2)cc1S(=O)(=O)NC1CCN(C(=O)c2ccc3ccccc3c2)CC1 [Example 809, 2-Isopropyl-N-[1-(2-naphthoyl)piperidin-4-yl]-5-(phenylsulfonyl)benzenesulfonamide] | 2.8 | 5.96 | 130 to 132 | 
4 | CC(C)c1ccc(S(=O)(=O)c2ccccc2)cc1S(=O)(=O)NC1CCN(C(=O)c2ccc(C(C)(C)C)cc2)CC1 [Example 812, N-[1-(4-tert-Butylbenzoyl)piperidin-4-yl]-2-isopropyl-5-(phenylsulfonyl)benzenesulfonamide] | 3.9 | 6.22 | 150 to 152 | 
5 | CCOc1ccc2ccccc2c1C(=O)N1CCC(NS(=O)(=O)c2cc(S(=O)(=O)c3ccccc3)ccc2C(C)C)CC1 [Example 813, N-[1-(2-Ethoxy-1-naphthoyl)piperidin-4-yl]-2-isopropyl-5-(phenylsulfonyl)benzenesulfonamide] | 3.9 | 6.40 | 164 to 166 | 6.17
6 | CCCc1ccc(S(=O)(=O)c2ccccc2)cc1S(=O)(=O)NCCc1ccncc1 [Example 859, 5-(Phenylsulfonyl)-2-propyl-N-(2-pyridin-4-ylethyl)benzenesulfonamide] | 3.6 | 6.22 | 155 to 157 | 5.81
7 | CCCc1ccc(S(=O)(=O)c2ccc(F)cc2)cc1S(=O)(=O)NCCc1cccnc1 [Example 874, 5-[(4-Fluorophenyl)sulfonyl]-2-propyl-N-(2-pyridin-3-ylethyl)benzenesulfonamide] | 3.1 | 5.71 | 111 to 113 | 5.70
8 | CCCc1ccc(S(=O)(=O)c2ccc(F)cc2)cc1S(=O)(=O)NCCc1ccncc1 [Example 875, 5-[(4-Fluorophenyl)sulfonyl]-2-propyl-N-(2-pyridin-4-ylethyl)benzenesulfonamide] | 1.6 | 6.22 | 160 to 162 | 5.18

Continued by rising pIC50 (SFRP-1 [2]), values first:

Row | fold induction at 10 µM (SFRP-1 [1]) | pIC50 (SFRP-1 [2]) | melting point [°C] | pEC50 (SFRP-1 [1]) | Compound
9 | 3 | 6.40 | 218 to 220 | 6.29 | CC(C)c1ccc(S(=O)(=O)c2ccccc2)cc1S(=O)(=O)NC1CCN(C(=O)c2ccc(F)cc2)CC1 [Example 805, N-[1-(4-Fluorobenzoyl)piperidin-4-yl]-2-isopropyl-5-(phenylsulfonyl)benzenesulfonamide]
10 | 3 | 6.52 | 215 to 218 |  | CC(C)c1ccc(S(=O)(=O)c2ccccc2)cc1S(=O)(=O)NC1CCN(C(=O)c2cccc(F)c2)CC1 [Example 804, N-[1-(3-Fluorobenzoyl)piperidin-4-yl]-2-isopropyl-5-(phenylsulfonyl)benzenesulfonamide]
11 | 2.6 | 6.52 | 136 to 138 |  | CC(C)c1ccc(S(=O)(=O)c2ccccc2)cc1S(=O)(=O)NC1CCN(C(=O)c2ccc(C#N)cc2)CC1 [Example 811, N-[1-(4-Cyanobenzoyl)piperidin-4-yl]-2-isopropyl-5-(phenylsulfonyl)benzenesulfonamide]
12 | 3.1 | 6.54 | 120 to 122 | 6.09 | CC(C)c1ccc(S(=O)(=O)c2ccccc2)cc1S(=O)(=O)NC1CCN(C(=O)c2cccc(C#N)c2)CC1 [Example 810, N-[1-(3-Cyanobenzoyl)piperidin-4-yl]-2-isopropyl-5-(phenylsulfonyl)benzenesulfonamide]
13 | 2.8 | 6.64 | 210 to 212 | 6.62 | CC(C)c1ccc(S(=O)(=O)c2ccccc2)cc1S(=O)(=O)NC1CCN(C(=O)c2ccccc2F)CC1 [Example 806, N-[1-(2-Fluorobenzoyl)piperidin-4-yl]-2-isopropyl-5-(phenylsulfonyl)benzenesulfonamide]
